In ChEMBL document CHEMBL5576127, “New CDDO Arylboronate Ester Derivatives with High Selectivity and Low Toxicity” (J Med Chem, 2024):
Active and inactive are the calls of the source. The rule behind the calls is not given here.

Key:
BGC-823 [1] = assay: Induction of ROS generation in human BGC-823 cells assessed as cells with green fluorescence at 0.25 uM incubated for 24 hrs by DCFH-DA staining based analysis relative to control; format: functional
BGC-823 [2] = assay: Induction of ROS generation in human BGC-823 cells assessed as cells with green fluorescence at 0.5 uM incubated for 24 hrs by DCFH-DA staining based analysis relative to control; format: functional
BGC-823 [3] = assay: Induction of ROS generation in human BGC-823 cells assessed as cells with green fluorescence at 1 uM incubated for 24 hrs by DCFH-DA staining based analysis relative to control; format: functional
BGC-823 [4] = assay: Induction of ROS generation in human BGC-823 cells assessed as cells with green fluorescence at 0.25 uM incubated for 24 hrs in presence of NAC by DCFH-DA staining based analysis relative to control; format: functional
Cell membrane [5] = assay: Induction of mitochondrial membrane potential loss in human BGC-823 cells assessed as increase in number of cells with J-monomers by measuring green fluorescence at 0.25 uM incubated for 24 hrs by JC-1 staining based flow cytometric analysis (reference value: 0.33%); format: cell membranes
Cell membrane [6] = assay: Induction of mitochondrial membrane potential loss in human BGC-823 cells assessed as decrease in number of cells with J-aggregates by measuring red fluorescence at 0.25 uM incubated for 24 hrs by JC-1 staining based flow cytometric analysis (reference value: 99.7 %); format: cell membranes; design: scale not given: the % may be the effect or the level left
Cell membrane [7] = assay: Induction of mitochondrial membrane potential loss in human BGC-823 cells assessed as increase in number of cells with J-monomers by measuring green fluorescence at 0.5 uM incubated for 24 hrs by JC-1 staining based flow cytometric analysis (reference value: 0.33%); format: cell membranes
Cell membrane [8] = assay: Induction of mitochondrial membrane potential loss in human BGC-823 cells assessed as decrease in number of cells with J-aggregates by measuring red fluorescence at 0.5 uM incubated for 24 hrs by JC-1 staining based flow cytometric analysis (reference value: 99.7 %); format: cell membranes; design: scale not given: the % may be the effect or the level left
Cell membrane [9] = assay: Induction of mitochondrial membrane potential loss in human BGC-823 cells assessed as increase in number of cells with J-monomers by measuring green fluorescence at 1 uM incubated for 24 hrs by JC-1 staining based flow cytometric analysis (reference value: 0.33%); format: cell membranes
Cell membrane [10] = assay: Induction of mitochondrial membrane potential loss in human BGC-823 cells assessed as decrease in number of cells with J-aggregates by measuring red fluorescence at 1 uM incubated for 24 hrs by JC-1 staining based flow cytometric analysis (reference value: 99.7 %); format: cell membranes; design: scale not given: the % may be the effect or the level left
Cell membrane [11] = assay: Induction of mitochondrial membrane potential loss in human BGC-823 cells assessed as increase in number of cells with J-monomers by measuring green fluorescence at 1 uM incubated for 24 hrs in presence of NAC by JC-1 staining based flow cytometric analysis (reference value: 0.33%); format: cell membranes
Cell membrane [12] = assay: Induction of mitochondrial membrane potential loss in human BGC-823 cells assessed as decrease in number of cells with J-aggregates by measuring red fluorescence at 1 uM incubated for 24 hrs in presence of NAC by JC-1 staining based flow cytometric analysis (reference value: 99.7 %); format: cell membranes; design: scale not given: the % may be the effect or the level left
BGC-823 [13] = assay: Induction of apoptosis in human BGC-823 cells assessed as viable cells at 0.25 uM incubated for 48 hrs by Annexin V-FITC/PI staining based flow cytometric analysis ( Rvb = 90.09 %); format: functional; conditions: read-out: Activity
BGC-823 [14] = assay: Induction of apoptosis in human BGC-823 cells assessed as early apoptotic cells at 0.25 uM incubated for 48 hrs by Annexin V-FITC/PI staining based flow cytometric analysis ( Rvb = 1.68 %); format: functional
BGC-823 [15] = assay: Induction of apoptosis in human BGC-823 cells assessed as late apoptotic cells at 0.25 uM incubated for 48 hrs by Annexin V-FITC/PI staining based flow cytometric analysis ( Rvb = 5.61 %); format: functional
BGC-823 [16] = assay: Induction of apoptosis in human BGC-823 cells assessed as necrotic cells at 0.25 uM incubated for 48 hrs by Annexin V-FITC/PI staining based flow cytometric analysis ( Rvb = 1.79 %); format: functional
BGC-823 [17] = assay: Induction of apoptosis in human BGC-823 cells assessed as viable cells at 0.5 uM incubated for 48 hrs by Annexin V-FITC/PI staining based flow cytometric analysis ( Rvb = 90.09 %); format: functional; conditions: read-out: Activity
BGC-823 [18] = assay: Induction of apoptosis in human BGC-823 cells assessed as early apoptotic cells at 0.5 uM incubated for 48 hrs by Annexin V-FITC/PI staining based flow cytometric analysis ( Rvb = 1.68 %); format: functional
BGC-823 [19] = assay: Induction of apoptosis in human BGC-823 cells assessed as late apoptotic cells at 0.5 uM incubated for 48 hrs by Annexin V-FITC/PI staining based flow cytometric analysis ( Rvb = 5.61 %); format: functional
BGC-823 [20] = assay: Induction of apoptosis in human BGC-823 cells assessed as necrotic cells at 0.5 uM incubated for 48 hrs by Annexin V-FITC/PI staining based flow cytometric analysis ( Rvb = 1.79 %); format: functional
BGC-823 [21] = assay: Induction of apoptosis in human BGC-823 cells assessed as viable cells at 1 uM incubated for 48 hrs by Annexin V-FITC/PI staining based flow cytometric analysis ( Rvb = 90.09 %); format: functional; conditions: read-out: Activity
BGC-823 [22] = assay: Induction of apoptosis in human BGC-823 cells assessed as early apoptotic cells at 1 uM incubated for 48 hrs by Annexin V-FITC/PI staining based flow cytometric analysis ( Rvb = 1.68 %); format: functional
BGC-823 [23] = assay: Induction of apoptosis in human BGC-823 cells assessed as late apoptotic cells at 1 uM incubated for 48 hrs by Annexin V-FITC/PI staining based flow cytometric analysis ( Rvb = 5.61 %); format: functional
BGC-823 [24] = assay: Induction of apoptosis in human BGC-823 cells assessed as necrotic cells at 1 uM incubated for 48 hrs by Annexin V-FITC/PI staining based flow cytometric analysis ( Rvb = 1.79 %); format: functional
BGC-823 [25] = assay: Cell cycle arrest in human BGC-823 cells assessed as accumulation of cells at G2/M phase incubated for 24 hrs by PI staining based flow cytometric analysis; format: functional
[26] = Half-life in rat at 10 mg/kg, ip measured after 24 hrs by LC-MS/MS analysis; format: ADME, organism-based; conditions: in vivo
[27] = Cmax in rat at 10 mg/kg, ip measured after 24 hrs by LC-MS/MS analysis; format: ADME, organism-based; conditions: in vivo
[28] = AUC (0 to t) in rat at 10 mg/kg, ip measured after 24 hrs by LC-MS/MS analysis; format: ADME, organism-based; conditions: in vivo
[29] = AUC (0 to infinity) in rat at 10 mg/kg, ip measured after 24 hrs by LC-MS/MS analysis; format: ADME, organism-based; conditions: in vivo
[30] = Clearance in rat at 10 mg/kg, ip measured after 24 hrs by LC-MS/MS analysis; format: ADME, organism-based; conditions: in vivo
[31] = Apparent volume of distribution in rat at 10 mg/kg, ip measured after 24 hrs by LC-MS/MS analysis; format: ADME, organism-based; conditions: in vivo
[32] = Half-life in rat at 10 mg/kg, iv measured after 24 hrs by LC-MS/MS analysis; format: ADME, organism-based; conditions: in vivo
[33] = Cmax in rat at 10 mg/kg, iv measured after 24 hrs by LC-MS/MS analysis; format: ADME, organism-based; conditions: in vivo
[34] = AUC (0 to t) in rat at 10 mg/kg, iv measured after 24 hrs by LC-MS/MS analysis; format: ADME, organism-based; conditions: in vivo
[35] = AUC (0 to infinity) in rat at 10 mg/kg, iv measured after 24 hrs by LC-MS/MS analysis; format: ADME, organism-based; conditions: in vivo
[36] = Clearance in rat at 10 mg/kg, iv measured after 24 hrs by LC-MS/MS analysis; format: ADME, organism-based; conditions: in vivo
[37] = Apparent volume of distribution in rat at 10 mg/kg, iv measured after 24 hrs by LC-MS/MS analysis; format: ADME, organism-based; conditions: in vivo, read-out: Vz
[38] = Binding affinity to DTT in PBS assessed as UV peak appearance at 288 nm at 360 uM by UV-Vis spectra analysis
[39] = GSH reactivity in human BGC-823 cells assessed as GSSG/GSH ratio at 0.4 uM incubated for 24 hrs by microplate reader analysis (reference value: 0.34); format: ADME, cell-based; conditions: bgc-823, 24 h

With CC1(C)CC[C@]2(C(=O)OCCCCOC(=O)c3ccc(O)cc3)CC[C@]3(C)[C@H](C(=O)C=C4[C@@]5(C)C=C(C#N)C(=O)C(C)(C)[C@@H]5CC[C@]43C)[C@@H]2C1 as the compound, how does the Activity (BGC-823 [1]) read?
Its Activity is 23.2%.

And the Activity (BGC-823 [2])?
The Activity was 61.6%.

What about the Activity (BGC-823 [3]) of the same compound?
The Activity was 95.3%.

What about the Activity (BGC-823 [4]) of the same compound?
Its Activity is 67.2%.

What about the Activity (Cell membrane [5]) of the same compound?
Its Activity is 2.06%.

What about the Activity (Cell membrane [6]) of the same compound?
Its Activity is 97.8%.

What about the Activity (Cell membrane [7]) of the same compound?
The Activity was 15.4%.

What about the Activity (Cell membrane [8]) of the same compound?
Its Activity is 84.2%.

What about the Activity (Cell membrane [9]) of the same compound?
Its Activity is 77.4%.

And the Activity (Cell membrane [10])?
The Activity was 24.5%.

And the Activity (Cell membrane [11])?
Its Activity is 3.14%.

What about the Activity (Cell membrane [12]) of the same compound?
The Activity was 96.7%.

And the viability at 0.25 µM (BGC-823 [13])?
The viability at 0.25 µM was 90.6%.

What about the Activity (BGC-823 [14]) of the same compound?
The Activity was 3.01%.

What about the Activity (BGC-823 [15]) of the same compound?
Its Activity is 5.9%.

And the Activity (BGC-823 [16])?
The Activity was 0.49%.

What about the viability at 0.5 µM (BGC-823 [17]) of the same compound?
The viability at 0.5 µM was 74.7%.

And the Activity (BGC-823 [18])?
The Activity was 3.44%.

What about the Activity (BGC-823 [19]) of the same compound?
The Activity was 16.1%.

And the Activity (BGC-823 [20])?
Its Activity is 5.79%.

And the viability at 1 µM (BGC-823 [21])?
Its viability at 1 µM is 50.1%.

And the Activity (BGC-823 [22])?
Its Activity is 14%.

And the Activity (BGC-823 [23])?
The Activity was 30.4%.

What about the Activity (BGC-823 [24]) of the same compound?
Its Activity is 5.52%.

What about the Activity (BGC-823 [25]) of the same compound?
Its Activity is “Dose-Dependent Effect”.

What about the half-life [26] of the same compound?
The half-life was 16.5 h.

What about the Cmax [27] of the same compound?
Its Cmax is 881 ng/mL.

What about the AUCt [28] of the same compound?
Its AUCt is 7310 ng·h/mL.

What about the AUC [29] of the same compound?
The AUC was 1163 ng·h/mL.

What about the CL [30] of the same compound?
The CL was 14.4 mL/min/kg.

And the Vz [31]?
Its Vz is 20.63 L/kg.

And the half-life [32]?
The half-life was 5.4 h.

What about the Cmax [33] of the same compound?
Its Cmax is 19000 ng/mL.

And the AUC(0-t) at 24 h [34]?
Its AUC(0-t) at 24 h is 20000 ng·h/mL.

And the AUC(0-inf) [35]?
Its AUC(0-inf) is 20200 ng·h/mL.

And the clearance [36]?
The clearance was 8.4 mL/min/kg.

And the Vd [37]?
The Vd was 3.99 L/kg.

What about the Activity [38] of the same compound?
The Activity was “Active”.

And the Ratio [39]?
Its Ratio is 1.08.
